Experiment [1] deals with ecNOS (Homo sapiens, UniProt P29474). The experiment can be described thus: NOS activity assay, ecNOS (L-[3H]citrulline formation). It is filed as biochemical. As for the experimental part:
(§1) Assay Protocol for NOS activity
(§2) NOS activity is measured as the formation of L-[2,3,4,5-^3 H]Citrullinefrom L-[2,3,4,5-^3 H]Arginine. The incubation buffer (100 μL) contained; 100 mM TES, pH 7.5, 5 μM FAD, 5 μM FMN, 10 μM BH4, 0.5 mM NADPH, 0.5 mM DTT, 0.5 mg/mL BSA, 2 mM CaCl2, 10 μg/mL calmodulin (bovine), 1 μM L-Arg, 0.2 μCi L-[2,3,4,5-^3 H]Arg, and the inhibitor in aqueous DMSO (max. 5%). The reaction is initiated by addition of enzyme. Incubations are performed at room temperature for 30 minutes and stopped by the addition of an equal volume of quenching buffer consisting of 200 mM sodium citrate, pH 2.2, 0.02% sodium azide. Reaction products are separated by passing through a cation exchange resin and quantitated as cpm by scintillation counting.

Experiment [2] concerns the target ncNOS (Homo sapiens, UniProt P29475). The experiment can be described thus: biochemical.
Experiment [3] addresses iNOS (Homo sapiens, UniProt P35228). The experiment can be described thus: NOS activity assay, iNOS (L-[3H]citrulline formation). It is filed as biochemical. As for the experimental part: as §1, §2

Each structure is given as a SMILES string. Counter-ions that a name gives are not always drawn. Like-named read-outs stand apart in the source and are kept apart here. A value given as a limit tells only on which side of the number the result lay.

ncNOS, sequence (P29475 whole entry): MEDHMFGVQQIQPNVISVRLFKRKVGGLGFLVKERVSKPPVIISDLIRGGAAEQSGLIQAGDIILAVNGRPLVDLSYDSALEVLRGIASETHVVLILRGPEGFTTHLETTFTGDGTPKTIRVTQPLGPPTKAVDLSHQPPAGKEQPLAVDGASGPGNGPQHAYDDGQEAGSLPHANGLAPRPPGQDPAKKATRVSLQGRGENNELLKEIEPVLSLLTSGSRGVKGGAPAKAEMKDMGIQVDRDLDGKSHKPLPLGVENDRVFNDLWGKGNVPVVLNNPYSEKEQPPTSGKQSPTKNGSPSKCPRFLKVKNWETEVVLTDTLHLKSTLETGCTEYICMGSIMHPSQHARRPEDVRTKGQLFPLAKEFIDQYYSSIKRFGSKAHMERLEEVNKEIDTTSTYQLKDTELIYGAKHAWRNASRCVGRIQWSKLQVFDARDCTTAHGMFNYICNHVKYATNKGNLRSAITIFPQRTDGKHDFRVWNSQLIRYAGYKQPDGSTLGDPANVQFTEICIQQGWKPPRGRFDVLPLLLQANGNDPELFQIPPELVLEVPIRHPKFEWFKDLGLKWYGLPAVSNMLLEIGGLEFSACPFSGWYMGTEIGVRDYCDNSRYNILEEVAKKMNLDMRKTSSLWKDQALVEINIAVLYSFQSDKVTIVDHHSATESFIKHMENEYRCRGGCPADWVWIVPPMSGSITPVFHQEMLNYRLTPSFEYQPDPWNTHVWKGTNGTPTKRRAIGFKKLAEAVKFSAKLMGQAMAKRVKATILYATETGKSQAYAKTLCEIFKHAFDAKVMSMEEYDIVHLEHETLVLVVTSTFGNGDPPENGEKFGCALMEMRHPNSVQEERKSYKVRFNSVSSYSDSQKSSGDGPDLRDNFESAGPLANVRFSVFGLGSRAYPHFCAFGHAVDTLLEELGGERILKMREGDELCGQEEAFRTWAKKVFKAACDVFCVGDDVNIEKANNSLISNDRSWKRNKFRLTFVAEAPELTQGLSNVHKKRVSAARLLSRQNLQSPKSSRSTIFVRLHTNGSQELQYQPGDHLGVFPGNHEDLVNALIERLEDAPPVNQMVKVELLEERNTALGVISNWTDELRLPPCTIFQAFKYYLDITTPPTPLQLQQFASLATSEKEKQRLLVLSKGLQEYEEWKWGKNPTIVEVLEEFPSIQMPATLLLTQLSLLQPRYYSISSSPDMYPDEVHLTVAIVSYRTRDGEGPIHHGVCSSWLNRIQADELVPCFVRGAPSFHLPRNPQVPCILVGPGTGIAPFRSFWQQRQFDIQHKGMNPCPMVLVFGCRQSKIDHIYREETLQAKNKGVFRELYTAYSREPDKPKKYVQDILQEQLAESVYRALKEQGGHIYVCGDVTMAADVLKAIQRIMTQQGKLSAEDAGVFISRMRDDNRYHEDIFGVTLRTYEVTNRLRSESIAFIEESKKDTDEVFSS

In the case of `N=C(N)CCNC(=O)C1CCC(=N)N1` (centres unmarked), the IC50 was greater than 50 µM in experiment [1] (Table 4, read-out: IC50 ecNOS); less than 10 µM in experiment [2] (Table 4, read-out: IC50 ncNOS); no more than 10 µM in experiment [3] (Table 4, read-out: IC50 iNOS).
Turning to `CC(=O)NCC1CNC(=N)CC1C` (mixture of isomers) [Table 5: CH, H, CH3, CH2NHAc, H, H, H, cis/trans-5-Acetamidomethyl-2-imino-4-methyl-piperidine, acetic acid salt], the IC50 in experiment [1] (Table 5, read-out: IC50 ecNOS) is greater than 50 µM; in experiment [2] (Table 5, read-out: IC50 ncNOS), no more than 50 µM; in experiment [3] (Table 5, read-out: IC50 iNOS) it was no more than 50 µM.
As for `COC(=O)C1CNC(=N)CC1C` (mixture of isomers) [Table 5: CH, H, CH3, CO2CH3, H, H, H, cis/trans-2-Imino-4-methyl-piperidine-5-carboxylic acid, methyl ester, acetic acid salt], the IC50 in experiment [1] (Table 5, read-out: IC50 ecNOS) was greater than 50 µM; in experiment [2] (Table 5, read-out: IC50 ncNOS) it was no more than 50 µM; in experiment [3] (Table 5, read-out: IC50 iNOS), no more than 10 µM.
As to `CC1CC(=N)NCC1C(=O)O` (mixture of isomers) [Table 5: CH, H, CH3, CO2H, H, H, H, cis/trans-2-Imino-4-methyl-piperidine-5-carboxylic acid, acetic acid salt], the IC50 was no more than 50 µM in experiment [1] (Table 5, read-out: IC50 ecNOS); no more than 10 µM in experiment [2] (Table 5, read-out: IC50 ncNOS); no more than 10 µM in experiment [3] (Table 5, read-out: IC50 iNOS).
With `CC(=O)NC1CNC(=N)CC1C` (mixture of isomers) [Table 5: CH, H, CH3, NHAc, H, H, H, cis/trans-5-Acetamido-2-imino-4-methyl-piperidine, acetic acid salt], the IC50 in experiment [1] (Table 5, read-out: IC50 ecNOS) is greater than 50 µM; in experiment [2] (Table 5, read-out: IC50 ncNOS) it was greater than 50 µM; in experiment [3] (Table 5, read-out: IC50 iNOS), no more than 50 µM.
As to `CC1CC(=N)NCC1C1CCCCC1` (mixture of isomers) [cis/trans-5-Cyclohexyl-2-imino-4-methyl-piperidine, acetic acid salt], the IC50 in experiment [1] (Table 5, read-out: IC50 ecNOS) was greater than 50 µM; in experiment [2] (Table 5, read-out: IC50 ncNOS), greater than 50 µM; in experiment [3] (Table 5, read-out: IC50 iNOS) it was greater than 50 µM.
For `NC1=N[C@H]2CCCC[C@H]2CC1` (relative stereo) [Table 5: CH2, H, H, cis-(CH2)4, H, H, cis-Decahydro-2-iminoquinoline hydrochloride], the IC50 in experiment [1] (Table 5, read-out: IC50 ecNOS) was no more than 50 µM; in experiment [2] (Table 5, read-out: IC50 ncNOS), no more than 1 µM; in experiment [3] (Table 5, read-out: IC50 iNOS), no more than 1 µM.
As for `N=C1CC[C@@H]2CCCC[C@H]2N1` (relative stereo) [Table 5: CH2, H, H, trans-(CH2)4, H, H, trans-Decahydro-2-iminoquinoline hydrochloride], the IC50 in experiment [1] (Table 5, read-out: IC50 ecNOS) was no more than 10 µM; in experiment [2] (Table 5, read-out: IC50 ncNOS) it was no more than 1 µM; in experiment [3] (Table 5, read-out: IC50 iNOS), no more than 1 µM.
As for `CC[C@@H]1C(=N)NCC[C@@H]1C` (relative stereo) [Table 5: CH, C2H5, CH3, H, H, H, H, cis-3-Ethyl-2-imino-4-methyl-piperidine, hydrochloride], the IC50 was no more than 50 µM in experiment [1] (Table 5, read-out: IC50 ecNOS); no more than 10 µM in experiment [2] (Table 5, read-out: IC50 ncNOS); no more than 50 µM in experiment [3] (Table 5, read-out: IC50 iNOS).
As to `C[C@@H]1CC(=N)N[C@H](C)C1` (relative stereo) [Table 5: CH, H, CH3, H, CH3, H, H, cis-4,6-Dimethyl-2-imino-piperidine, acetic acid salt], the IC50 in experiment [1], in experiment [2] and in experiment [3] was no more than 1 µM in each case.
In the case of `CCC[C@@H]1C(=N)NCC[C@@H]1C` (relative stereo) [Table 5: CH, n-C3H7, CH3, H, H, H, H, cis-2-Imino-4-methyl-3-n-propyl-piperidine, hydrochloride], the IC50 in experiment [1] (Table 5, read-out: IC50 ecNOS) is greater than 50 µM; in experiment [2] (Table 5, read-out: IC50 ncNOS), no more than 50 µM; in experiment [3] (Table 5, read-out: IC50 iNOS), no more than 50 µM.
Consider `N=C1CN[C@@H]2CCCC[C@@H]2N1` (relative stereo) [Table 5: N, H, H, cis-(CH2)4, H, H, 2-Imino-decahydro-cis-quinoxaline], for which the IC50 in experiment [1] was greater than 50 µM; in experiment [2] (Table 5, read-out: IC50 ncNOS), greater than 50 µM; in experiment [3], no more than 10 µM.
As to `CC1CC(N)=NC1C` (single isomer, unassigned) [Table 4: H, CH3, CH3(A), H, H], the IC50 in experiment [1] (Table 4, read-out: IC50 ecNOS) is no more than 1 µM; in experiment [2] (Table 4, read-out: IC50 ncNOS) it was no more than 1 µM; in experiment [3] (Table 4, read-out: IC50 iNOS) it was no more than 1 µM.
Regarding `CC1CC(N)=NC1C` (single isomer, unassigned) [Table 4: H, CH3, CH3(B), H, H], the IC50 in experiment [2] (Table 4, read-out: IC50 ncNOS) is no more than 1 µM; in experiment [3] (Table 4, read-out: IC50 iNOS), no more than 1 µM.
`CCC1CN=C(N)C1C` (centres unmarked) [Table 4: CH3, C2H5, H, H, H, 2-Imino-4-ethyl-3-methylpyrrolidine hydrochloride]: the IC50 is greater than 50 µM in experiment [1] (Table 4, read-out: IC50 ecNOS); no more than 10 µM in experiment [2] (Table 4, read-out: IC50 ncNOS); no more than 1 µM in experiment [3] (Table 4, read-out: IC50 iNOS).
For the compound `CC1CN=C(N)C1C` (centres unmarked) [Table 4: CH3, CH3, H, H, H, 2-Imino-3,4-dimethylpyrrolidine hydrochloride], the IC50 in experiment [1] (Table 4, read-out: IC50 ecNOS) was no more than 10 µM; in experiment [2] (Table 4, read-out: IC50 ncNOS), no more than 1 µM; in experiment [3] (Table 4, read-out: IC50 iNOS) it was no more than 10 µM.
Turning to `CC1CCN=C1N` (centres unmarked) [Table 4: CH3, H, H, H, H, 2-Imino-3-methylpyrrolidine hydrochloride], the IC50 in experiment [1] (Table 4, read-out: IC50 ecNOS) is no more than 10 µM; in experiment [2], no more than 1 µM; in experiment [3] (Table 4, read-out: IC50 iNOS), no more than 10 µM.
For the compound `CCC1CC(N)=NC1C` (centres unmarked) [Table 4: H, C2H5, CH3, H, H, 2-Imino-4-ethyl-5-methylpyrrolidine hydrochloride], the IC50 is no more than 10 µM in experiment [1] (Table 4, read-out: IC50 ecNOS); no more than 1 µM in experiment [2] (Table 4, read-out: IC50 ncNOS); no more than 1 µM in experiment [3] (Table 4, read-out: IC50 iNOS).
Consider `CCC1CN=C(N)C1` (centres unmarked) [Table 4: H, C2H5, H, H, H, 2-Imino-4-ethylpyrrolidine hydrochloride], for which the IC50 in experiment [1] (Table 4, read-out: IC50 ecNOS) was no more than 50 µM; in experiment [2] (Table 4, read-out: IC50 ncNOS) it was no more than 10 µM; in experiment [3] (Table 4, read-out: IC50 iNOS) it was no more than 1 µM.
For the compound `CCC1N=C(N)CC1C` (centres unmarked) [Table 4: H, CH3, C2H5, H, H, 2-Imino-5-ethyl-4-methylpyrrolidine hydrochloride], the IC50 in experiment [1] (Table 4, read-out: IC50 ecNOS) is no more than 1 µM; in experiment [2] it was no more than 1 µM; in experiment [3] (Table 4, read-out: IC50 iNOS), no more than 1 µM.
Consider `CC1CC(N)=NC1C` (centres unmarked) [Table 4: H, CH3, CH3, H, H, 2-Imino-4,5-dimethylpyrrolidine hydrochloride], for which the IC50 was less than 1 µM in experiment [1] (Table 4, read-out: IC50 ecNOS); less than 1 µM in experiment [2] (Table 4, read-out: IC50 ncNOS); no more than 1 µM in experiment [3] (Table 4, read-out: IC50 iNOS).
As for `CC1CN=C(N)C1` (centres unmarked) [Table 4: H, CH3, H, H, H, 2-Imino-4-methylpyrrolidine hydrochloride], the IC50 was no more than 10 µM in experiment [1], no more than 1 µM in experiment [2] and no more than 10 µM in experiment [3].
Take `CCCC1N=C(N)CC1C` (centres unmarked) [Table 4: H, CH3, n-C3H7, H, H, 2-Imino-4-methyl-5-propylpyrrolidine hydrochloride]: the IC50 in experiment [1] (Table 4, read-out: IC50 ecNOS) was no more than 50 µM; in experiment [2] (Table 4, read-out: IC50 ncNOS), no more than 10 µM; in experiment [3] (Table 4, read-out: IC50 iNOS), no more than 10 µM.
With `N=C1CC[C@@H]2CCCN12` [Table 4: H, H, (CH2)3, H, 5-(S)-2-Imino-1-aza-bicyclo(3.3.0)octane], the IC50 was no more than 50 µM in experiment [1] (Table 4, read-out: IC50 ecNOS); no more than 10 µM in experiment [2] (Table 4, read-out: IC50 ncNOS); greater than 50 µM in experiment [3] (Table 4, read-out: IC50 iNOS).
In the same order, the values of `CC1(C)CCC(=N)N1` [Table 4: H, H, (CH3)2, H, H, 2-Imino-5,5-dimethylpyrrolidine hydrochloride] are no more than 50 µM, no more than 10 µM and no more than 10 µM.
In the same order, the values of `CC(=O)OC[C@H]1CCC(=N)N1` [Table 4: H, H, (R)-CH2OAc, H, H, 2-Imino-5-(R)-acetyloxymethylpyrrolidine hydrochloride] are greater than 50 µM, greater than 50 µM and greater than 50 µM.
Turning to `N=C1CC[C@H](CO)N1` [Table 4: H, H, (R)-CH2OH, H, H, 2-Imino-5-(R)-hydroxymethylpyrrolidine hydrochloride], the IC50 is no more than 50 µM in experiment [1] (Table 4, read-out: IC50 ecNOS); no more than 50 µM in experiment [2] (Table 4, read-out: IC50 ncNOS); no more than 50 µM in experiment [3] (Table 4, read-out: IC50 iNOS).
With `CC(=O)OC[C@@H]1CCC(=N)N1` [Table 4: H, H, (S)-CH2OAc, H, H, 2-Imino-5-(S)-acetyloxymethylpyrrolidine hydrochloride], the IC50 in experiment [1] (Table 4, read-out: IC50 ecNOS) was greater than 50 µM; in experiment [2] (Table 4, read-out: IC50 ncNOS) it was no more than 10 µM; in experiment [3] (Table 4, read-out: IC50 iNOS), no more than 50 µM.
As for `O=C(O)C1CCC(=NC2NCCS2)N1` (centres unmarked) [Table 4: H, H, CO2H, H, 2-thiazolidinyl], the IC50 in experiment [3] (Table 4, read-out: IC50 iNOS) is no more than 50 µM.
`C[C@@H]1CCC(=N)NC1` [Table 5: CH2, H, H, (R)CH3, H, H, H, 5(R)-Methyl-2-iminopiperidine hydrochloride]: the values for the IC50 in experiment [1] and in experiment [3] were no more than 10 µM and no more than 1 µM, respectively.
In the same order, the values of `C[C@H]1CCC(=N)NC1` [Table 5: CH2, H, H, (S)CH3, H, H, H, 5(S)-Methyl-2-iminopiperidine hydrochloride] are no more than 10 µM and no more than 10 µM.
Taken in the same sequence, the figures for `CC1CCC(N)=NC1` (centres unmarked) [Table 5: CH2, H, H, CH3, H, H, H, 2-Imino-5-methylpiperidine hydrochloride] were no more than 10 µM and no more than 1 µM.
In the same order, the values of `N=C1CCCCN1` [Table 5: CH2, H, H, H, H, H, H, 2-Iminopiperidine hydrochloride] are no more than 1 µM and no more than 1 µM.
Regarding `C[C@@H]1CCNC(=N)C1` [Table 5: CH, H, (R)CH3, H, H, H, H, 4(R)-Methyl-2-iminopiperidine hydrochloride], the IC50 in experiment [3] was no more than 1 µM.
Still for that read-out and setting: the result for `C[C@H]1CCNC(=N)C1` [Table 5: CH, H, (S)CH3, H, H, H, H, 4(S)-Methyl-2-iminopiperidine hydrochloride] reads no more than 1 µM.
Same read-out and setting: the result for `CC1CCN=C(N)C1` (centres unmarked) [Table 5: CH, H, CH3, H, H, H, H, 2-Imino-4-methylpiperidine hydrochloride] reads no more than 1 µM.

The record behind these values is patent publication US5629322A, “Cyclic amidine analogs as inhibitors of nitric oxide synthase” (priority 1995, dated 1997).
